Patent US12187742B2 (XRAD Therapeutics, Inc., priority 2018, dated 2025)
pIC50: −log10 of the molar value. Structures can show the parent of a compound that is named as a salt.

These compounds were tested against ATM (Homo sapiens (Human), UniProt Q13315) (assay: ATM in Cell Western Assay (pKAP1 in etoposide-treated MCF-7 cells)). Settings: MCF-7 cells, etoposide 100 μM, 1 hr, pKAP1 readout.
Type: cell-based
Description: Assay of Compounds ATM and DNA-PK Inhibition
ATM in Cell Western Assay:
Next day, add corresponding concentration of compounds using pin tool (Echo 550), the final top concentration is 1 μM, 3-fold series dilution, total 10 doses. Then add etoposide (Sigma, #E1383) to a final concentration of 100 μM. Incubate at 37° C. for 1 hr. Fix cells by adding 25 μL of fixing solution (8% paraformaldehyde) for 20 minutes at ambient temperature. Permeabilize cells for 5 washes with 1×PBS (phosphate buffered saline) containing 0.1% Triton X-100; each wash is for 5 minutes. […] The next day, wash the plate 5 times with 1×PBST (1×PBS containing 0.1% Tween-20). […] Wash the cells for 5 times with 1×PBST (1×PBS containing 0.1% Tween-20) at ambient temperature, using gentle shaking in the dark. After the last wash
remove wash solution, turn plate upside down onto a thin paper towel and centrifuge at 1000 rpm for 1 min to absorb all wash buffer. Clean the bottom of plate with moist lint free paper. Scan plate immediately using ODYSSEY CLx (LI-COR) for the best results.

Chain of ATM (Q13315 whole entry): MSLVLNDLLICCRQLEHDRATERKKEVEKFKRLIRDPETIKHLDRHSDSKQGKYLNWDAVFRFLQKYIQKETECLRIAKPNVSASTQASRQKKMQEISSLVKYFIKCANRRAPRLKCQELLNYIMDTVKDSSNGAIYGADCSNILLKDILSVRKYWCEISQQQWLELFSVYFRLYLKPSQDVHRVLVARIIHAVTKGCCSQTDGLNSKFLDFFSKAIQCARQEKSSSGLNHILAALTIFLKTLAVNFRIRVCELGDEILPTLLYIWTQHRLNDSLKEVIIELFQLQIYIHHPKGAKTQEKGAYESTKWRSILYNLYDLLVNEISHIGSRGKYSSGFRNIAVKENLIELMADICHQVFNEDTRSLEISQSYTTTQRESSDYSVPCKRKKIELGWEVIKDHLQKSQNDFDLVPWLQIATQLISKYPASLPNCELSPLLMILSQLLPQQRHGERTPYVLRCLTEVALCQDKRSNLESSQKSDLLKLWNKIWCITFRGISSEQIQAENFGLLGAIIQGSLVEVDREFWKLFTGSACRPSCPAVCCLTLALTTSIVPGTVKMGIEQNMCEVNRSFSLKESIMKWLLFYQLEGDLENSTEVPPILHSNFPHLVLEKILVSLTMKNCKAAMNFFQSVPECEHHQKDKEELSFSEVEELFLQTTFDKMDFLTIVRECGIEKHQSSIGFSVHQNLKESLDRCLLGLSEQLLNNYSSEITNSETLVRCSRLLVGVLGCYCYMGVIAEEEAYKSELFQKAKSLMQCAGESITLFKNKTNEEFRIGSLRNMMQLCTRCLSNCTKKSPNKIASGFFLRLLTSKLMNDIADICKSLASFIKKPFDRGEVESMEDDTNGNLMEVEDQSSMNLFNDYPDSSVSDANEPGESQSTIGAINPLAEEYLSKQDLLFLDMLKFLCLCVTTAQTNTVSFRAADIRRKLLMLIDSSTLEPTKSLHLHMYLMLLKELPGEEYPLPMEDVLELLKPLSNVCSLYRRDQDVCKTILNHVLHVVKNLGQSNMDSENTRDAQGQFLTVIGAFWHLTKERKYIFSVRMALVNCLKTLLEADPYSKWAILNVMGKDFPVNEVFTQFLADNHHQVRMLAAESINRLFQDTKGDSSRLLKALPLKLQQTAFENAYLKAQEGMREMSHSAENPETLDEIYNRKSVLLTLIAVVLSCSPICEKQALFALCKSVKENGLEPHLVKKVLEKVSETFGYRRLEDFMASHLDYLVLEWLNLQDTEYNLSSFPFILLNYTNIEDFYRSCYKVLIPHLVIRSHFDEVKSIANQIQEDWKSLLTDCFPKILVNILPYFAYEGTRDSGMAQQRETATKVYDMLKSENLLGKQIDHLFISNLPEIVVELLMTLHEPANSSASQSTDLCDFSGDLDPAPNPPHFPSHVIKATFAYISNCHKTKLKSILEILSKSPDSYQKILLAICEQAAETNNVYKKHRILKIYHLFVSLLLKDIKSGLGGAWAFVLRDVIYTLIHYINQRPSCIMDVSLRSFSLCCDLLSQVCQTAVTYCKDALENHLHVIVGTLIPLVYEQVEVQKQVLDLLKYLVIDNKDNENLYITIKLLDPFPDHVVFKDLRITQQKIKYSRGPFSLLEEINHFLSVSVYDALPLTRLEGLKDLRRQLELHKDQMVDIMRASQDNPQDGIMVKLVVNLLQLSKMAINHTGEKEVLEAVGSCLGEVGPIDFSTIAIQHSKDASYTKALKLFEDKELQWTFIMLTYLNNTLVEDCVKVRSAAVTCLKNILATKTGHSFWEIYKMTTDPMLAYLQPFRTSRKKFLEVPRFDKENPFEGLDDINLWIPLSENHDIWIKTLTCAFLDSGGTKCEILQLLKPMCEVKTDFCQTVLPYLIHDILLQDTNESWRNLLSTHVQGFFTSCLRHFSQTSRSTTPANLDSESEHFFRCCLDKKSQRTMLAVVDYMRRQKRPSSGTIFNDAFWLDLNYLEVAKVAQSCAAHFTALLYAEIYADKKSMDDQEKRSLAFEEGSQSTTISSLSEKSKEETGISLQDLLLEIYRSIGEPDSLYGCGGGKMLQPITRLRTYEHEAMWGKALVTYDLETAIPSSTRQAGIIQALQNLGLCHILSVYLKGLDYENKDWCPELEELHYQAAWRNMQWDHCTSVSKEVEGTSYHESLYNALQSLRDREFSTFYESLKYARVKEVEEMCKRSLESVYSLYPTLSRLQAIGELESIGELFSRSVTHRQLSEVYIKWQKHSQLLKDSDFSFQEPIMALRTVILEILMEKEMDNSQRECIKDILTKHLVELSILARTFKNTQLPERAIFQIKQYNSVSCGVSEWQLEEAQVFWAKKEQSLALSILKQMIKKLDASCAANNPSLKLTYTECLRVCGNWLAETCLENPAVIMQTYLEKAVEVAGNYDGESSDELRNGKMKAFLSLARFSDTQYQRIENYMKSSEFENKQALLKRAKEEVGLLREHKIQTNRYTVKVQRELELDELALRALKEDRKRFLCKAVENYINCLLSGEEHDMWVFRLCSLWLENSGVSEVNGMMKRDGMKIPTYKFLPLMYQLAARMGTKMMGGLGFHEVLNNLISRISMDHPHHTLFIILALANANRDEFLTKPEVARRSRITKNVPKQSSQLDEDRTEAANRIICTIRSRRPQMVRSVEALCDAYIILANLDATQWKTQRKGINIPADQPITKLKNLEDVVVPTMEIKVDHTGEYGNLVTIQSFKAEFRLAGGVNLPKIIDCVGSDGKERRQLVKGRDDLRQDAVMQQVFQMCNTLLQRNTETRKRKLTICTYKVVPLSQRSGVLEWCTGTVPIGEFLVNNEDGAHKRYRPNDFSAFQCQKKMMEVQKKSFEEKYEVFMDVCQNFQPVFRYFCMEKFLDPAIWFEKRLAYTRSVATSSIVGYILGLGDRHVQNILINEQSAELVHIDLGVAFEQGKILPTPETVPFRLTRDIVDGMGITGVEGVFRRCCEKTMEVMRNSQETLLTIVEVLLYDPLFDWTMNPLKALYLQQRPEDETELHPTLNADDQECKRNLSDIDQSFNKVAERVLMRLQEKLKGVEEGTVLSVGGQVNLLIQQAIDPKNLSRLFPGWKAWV

Q: `CN1C(=O)C2(CCC2)c2c1cnc1ccc(-c3cnc(N4CCS(=N)(=O)CC4)c(NS(=O)(=O)c4ccccc4)c3)cc21` (racemic) [Example 138, rac-N-(2-(1-Imino-1-oxido-1λ^6-thiomorpholino)-5-(3′-methyl-2′-oxo-2′,3′-dihydrospiro[cyclobutane-1,1′-pyrrolo[2,3-c]quinolin]-8′-yl)pyridin-3-yl)benzenesulfonamide hydrochloride] was tested. Which pIC50 did it give?
A: The pIC50 was under 7.00.

Q: With `COc1ncc(-c2ccc3ncc4c(c3c2)C2(CCC2)C(=O)N4C)cc1S(=N)(=O)c1ccccc1` (racemic) [Example 151, rac-8′-(6-Methoxy-5-(phenylsulfonimidoyl)pyridin-3-yl)-3′-methylspiro[cyclobutane-1,1′-pyrrolo[2,3-c]quinolin]-2′(3′H)-one] as the compound, how does the pIC50 read?
A: The pIC50 was under 7.00.

Q: `CN(C)CCCOc1ncc(-c2ccc3ncc4c(c3c2)C2(CCCC2)C(=O)N4C)cc1NC(=O)c1ccccc1` [Example 7] was tested. Which pIC50 did it give?
A: Its pIC50 is under 7.00.

Q: With `COc1ncc(-c2ccc3ncc4c(c3c2)C2(CC2)C(=O)N4Cc2cn[nH]c2)cc1NS(=O)(=O)c1ccccc1` [Example 11, N-(5-(3′-((1H-Pyrazol-4-yl)methyl)-2′-oxo-2′,3′-dihydrospiro[cyclopropane-1,1′-pyrrolo[2,3-c]quinolin]-8′-yl)-2-methoxypyridin-3-yl) benzenesulfonamide] as the compound, how does the pIC50 read?
A: The pIC50 was under 7.00.

Q: With `COc1ncc(-c2ccc3ncc(Nc4ccn(C)n4)c(=O)n3c2)cc1NS(=O)(=O)c1ccccc1` [Example 16, N-(2-Methoxy-5-(3-((1-methyl-1H-pyrazol-3-yl)amino)-4-oxo-4H-pyrido[1,2-a]pyrimidin-7-yl)pyridin-3-yl)benzenesulfonamide] as the compound, how does the pIC50 read?
A: The pIC50 was under 7.00.

Q: How did the pIC50 turn out when `COc1ncc(-c2ccc3ncc4c(c3c2)C2(CC2)C(=O)N4CC2COC2)cc1NS(=O)(=O)c1ccccc1` [Example 17, N-(2-Methoxy-5-(3 (oxetan-3-ylmethyl)-2′-oxo-2′,3′-dihydrospiro[cyclopropane-1,1′-pyrrolo[2,3-c]quinolin]-8′-yl)pyridin-3-yl)benzenesulfonamide] was run?
A: The pIC50 was under 7.00.

Q: With `COc1ncc(-c2ccc3ncc4c(c3c2)C2(CC2)C(=O)N4C)cc1NS(=O)(=O)c1cccc(C(C)O)c1` (stereo not drawn) [Example 18, 3-(1-Hydroxyethyl)-N-(2-methoxy-5-(3′-methyl-2′-oxo-2′,3′-dihydrospiro[cyclopropane-1,1′-pyrrolo[2,3-c]quinolin]-8′-yl)pyridin-3-yl)benzenesulfonamide] as the compound, how does the pIC50 read?
A: The pIC50 was 7.00 to 9.00.

Q: `CN1C(=O)C2(CC2)c2c1cnc1ccc(-c3cnc4ccccc4c3)cc21` [Example 20, 3′-Methyl-8′-(quinolin-3-yl)spiro[cyclopropane-1,1′-pyrrolo[2,3-c]quinolin]-2′(3′-H)-one] was tested. Which pIC50 did it give?
A: The pIC50 was under 7.00.

Q: With `CN1C(=O)C(C)(c2ccncc2)c2c1cnc1ccc(-c3cnc(Cl)c(NS(=O)(=O)c4ccccc4)c3)cc21` (stereo not drawn) [Example 23, N-(2-Chloro-5-(1,3-dimethyl-2-oxo-1-(pyridin-4-yl)-2′,3′-dihydro-1H-pyrrolo[2,3-c]quinolin-8-yl)pyridin-3-yl)benzenesulfonamide] as the compound, how does the pIC50 read?
A: The pIC50 was under 7.00.

Q: How did the pIC50 turn out when `CN1C(=O)C2(CC2)c2c1cnc1ccc(-c3cncc(C(C)(C)O)c3)cc21` [Example 25, 8′-(5-(2-Hydroxypropan-2-yl)pyridin-3-yl)-3 methylspiro[cyclopropane-1,1′-pyrrolo[2,3-c]quinolin]-2′(3′-H)-one] was run?
A: Its pIC50 is under 7.00.

Q: With `COc1ncc(-c2ccc3ncc4c(c3c2)C2(CC2)C(=O)N4C)cc1C(C)(C)O` [Example 26, 8′-(5-(2-Hydroxypropan-2-yl)-6-methoxypyridin-3-yl)-3′-methylspiro [cyclopropane-1,1′-pyrrolo[2,3-c]quinolin]-2′(3′-H)-one] as the compound, how does the pIC50 read?
A: The pIC50 was under 7.00.

Q: With `COc1ncc(-c2ccc3ncc4c(c3c2)C2(CC2)C(=O)N4CCC#N)cc1NS(=O)(=O)c1ccccc1` [Example 27, N-(5-(3′-(2-Cyanoethyl)-2′-oxo-2′,3′-dihydrospiro[cyclopropane-1,1′-pyrrolo[2,3-c]quinolin]-8′-yl)-2-methoxypyridin-3-yl)benzenesulfonamide] as the compound, how does the pIC50 read?
A: Its pIC50 is under 7.00.

Q: How did the pIC50 turn out when `CN1C(=O)C2(CC2)c2c1cnc1ccc(-c3cnc(Cl)c(C(C)(C)O)c3)cc21` [Example 28, 8′-(6-Chloro-5-(2-hydroxypropan-2-yl)pyridin-3-yl)-3′-methylspiro[cyclopropane-1,1′-pyrrolo[2,3-c]quinolin]-2′(3′-H)-one] was run?
A: Its pIC50 is under 7.00.

Q: With `CC(C)N1C(=O)C2(CC2)c2c1cnc1ccc(-c3cnc(OCCCN(C)C)c(NS(=O)(=O)c4ccccc4)c3)cc21` [Example 31, N-(2-(3-(Dimethylamino)propoxy)-5-(3′-isopropyl-2′-oxo-2′,3′-dihydrospiro [cyclopropane-1,1′-pyrrolo[2,3-c]quinolin]-8′-yl)pyridin-3-yl) benzenesulfonamide] as the compound, how does the pIC50 read?
A: Its pIC50 is under 7.00.

Q: How did the pIC50 turn out when `CC(C)Nc1cc(-c2ccc3ncc4c(c3c2)C2(CC2)C(=O)N4C)cnc1OCCCN(C)C` [Example 34, 8′-(6-(3-(Dimethylamino)propoxy)-5-(isopropylamino)pyridin-3-yl)-3′-methylspiro[cyclopropane-1,1′-pyrrolo[2,3-c]quinolin]-2′(3′-H)-one] was run?
A: Its pIC50 is under 7.00.

Q: With `COc1ncc(-c2ccc3ncc4c(c3c2)C2(CC2)C(=O)N4C)cc1S(=O)(=O)c1ccccc1` [Example 36] as the compound, how does the pIC50 read?
A: Its pIC50 is under 7.00.

Q: With `CC(C)Oc1cc(-c2ccc3ncc4c(c3c2)C2(CC2)C(=O)N4C)cnc1OCCCN(C)C` [Example 38, 8′-(6-(3-(Dimethylamino)propoxy)-5-isopropoxypyridin-3-yl)-3′-methylspiro[cyclopropane-1,1′-pyrrolo[2,3-c]quinolin]-2′(3′-H)-one] as the compound, how does the pIC50 read?
A: Its pIC50 is under 7.00.

Q: With `CN1C(=O)C2(CC2)c2c1cnc1ccc(-c3ccc4nccnc4c3)cc21` [Example 39, 3′-Methyl-8′-(quinoxalin-6-yl)spiro[cyclopropane-1,1′-pyrrolo[2,3-c]quinolin]-2′(3′-H)-one] as the compound, how does the pIC50 read?
A: Its pIC50 is under 7.00.

Q: With `CN1C(=O)C2(CC2)c2c1cnc1ccc(-c3ccc4[nH]c(=O)ccc4c3)cc21` [Example 40] as the compound, how does the pIC50 read?
A: Its pIC50 is under 7.00.

Q: `CN1C(=O)C2(CC2)c2c1cnc1ccc(-c3ccc4nc(Cl)ccc4c3)cc21` [Example 41, 8′-(2-Chloroquinolin-6-yl)-3′-methylspiro [cyclopropane-1,1′-pyrrolo [2,3-c]quinolin]-2′(3′-H)-one] was tested. Which pIC50 did it give?
A: Its pIC50 is under 7.00.

Q: With `COc1ccc2cc(-c3ccc4ncc5c(c4c3)C3(CC3)C(=O)N5C)ccc2n1` [Example 44, 8′-(2-Methoxyquinolin-6-yl)-3′-methylspiro [cyclopropane-1,1′-pyrrolo[2,3-c]quinolin]-2′(3′-H)-one] as the compound, how does the pIC50 read?
A: Its pIC50 is under 7.00.

Q: How did the pIC50 turn out when `CN1C(=O)C2(CC2)c2c1cnc1ccc(-c3ccc4c(ccc(=O)n4C)c3)cc21` [Example 45, 3′-Methyl-8′-(1-methyl-2-oxo-1,2-dihydroquinolin-6-yl)spiro[cyclopropane-1,1′-pyrrolo[2,3-c]quinolin]-2′(3′-H)-one] was run?
A: Its pIC50 is under 7.00.

Q: `CN1C(=O)C2(CC2)c2c1cnc1ccc(-c3cccc4[nH]ncc34)cc21` [Example 50, 8′-(1H-indazol-4-yl)-3′-methylspiro[cyclopropane-1,1′-pyrrolo[2,3-c]quinolin]-2′(3′-H)-one] was tested. Which pIC50 did it give?
A: The pIC50 was under 7.00.

Same assay, conditions: pKAP1 in etoposide-treated MCF-7 cells

Q: How did the pIC50 turn out when `CN1C(=O)C2(CCC2)c2c1cnc1ccc(-c3cnc(N4CCC(C)(N5CCCCC5)C4)c(NS(C)(=O)=O)c3)cc21` (racemic) [Example 353, (rac)-N-(5-(3′-Methyl-2′-oxo-2′,3′-dihydrospiro[cyclobutane-1,1′-pyrrolo[2,3-c]quinolin]-8′-yl)-2-(3-methyl-3-(piperidin-1-yl)pyrrolidin-1-yl)pyridin-3-yl)methanesulfonamide hydrochloride] was run?
A: The pIC50 was under 7.00.
